This is an account of results in patent US20030118671A1, “Formulation containing peanut leaf extract and its preparation” (priority 1999, published 2003).

In one assay the test system is mice. To be noted: mouse, in vivo; cited from earlier work.
Assay [1] relates to spleen, thymus and lymph node. Briefly: Immune organs weight assay. The class given is in vivo, Kunming mice. To be noted: mice, day 8; leaf extract 84.8 g/1 kg orally 7 days; cortisone acetate 50 mg/1 kg i.m. 3 times. The source says: Organ weights of Spleen, thymus and lymph node in animals are increased by most of the immunopotentiating agents, but decreased by immunosuppressive agents. So the assay was used to investigate the effect of the preparation containing leaf extract of A. hypogaea on immunological function.
Animals: male and female (1:1) Kunming mice (provided by Shanghai Bioproduct Institute) were used.
Drugs: leaf extract of A. hypogaea, provided by Shanghai Zhoaxiang Chinese Medicinal Herbs Factory. Injection of cortisone acetate was provided by Shanghai Ninth Pharmaceutical Factory.
Methods: The animals were divided into groups at random after weighting. Mice were administered with 84.8 g/1 kg body weight diluted leaf extract of A. hypogaea (in terms of crude drugs) orally once per day for 7 days. 50 mg/1 kg cortisone acetate was injected intramuscularly (totally 3 times), on 2, 4, 6 days after the administration of leaf extract of A. hypogaea. 0.2 ml/10 g body weight physiological saline was administrated orally in control group, once per day for 7 days. Animals were sacrificed on the day 8 by bleeding from orbit vein. Then, spleen, thymus and lymph node (jaw, axillary fossa, groin) were taken out and weighed immediately. Each organic weight was shown as mg/10 g body weight.

The subject of a further assay is mononuclear macrophage. Put plainly: Carbon particulate clearance test. The class given is in vivo. To be noted: mice, day 8 after seven days of drug; the values are: carbon clearance K value. The source says:
This method was used to observe the phagocytosis of mononuclear macrophage. Immunopotentiators can activate the macrophage of mice, and enhance the phagocytosis thereof. In contrast, immunosuppressants suppress these effects. Therefore, K values were increased or decreased by these two kinds of drugs, respectively
Animals and drugs were same to those used above.
Methods: After oral administration of drugs or physiological saline, or intramuscular injection of […], for seven days, 0.05 mL/10 g body weight injected through tail vein in mice on day 8. 20 μL blood was acquired from orbit vein, in 1 and 5 minutes after injection, added to 0.1%Na2CO3 respectively, and shaken up. Optical density was detected with Model-72 spectrophotometer at λ=680 nm. K values were calculated. The results were statistically analyzed and p values were assessed by t-test.

The test system of a further assay is spleen cells. Briefly: Spleen cell rosette test (RFC method). The class given is in vivo, mice. The following applies: 4 days after SRBC immunisation. The protocol: (§1) Peripheral blood of mouse, spleen cells rosette formation method. This method was used to observe the effect of drugs on antigen combining cell during the earlier stage of immune, which was used to screen immunopotentiator or immunosuppressant. 7.5 mg cyclophosphamide (manufactured by Shanghai Twelve Pharmaceutical Factory) per 1 kg of body weight of male mouse was injected intraperitoneally. According the recommended method for screening immune drugs disclosed by a person, each group was administrated and immured by injection sheep red blood cell (SRBC). After 4 days, peripheral blood and spleen cell suspension (approximately 9 million spleen cells per milliliter) were obtained from mice, and 1% SRBC and 0.1 mL inactivated calf blood serum were added thereto, intermixed and centrifuged under low-speed for 10 minutes. Then 1% toluidine blue was added in minor amount along the wall of the test tubes. Cell pellet was slightly dispersed by pipette. Well-mixed cell suspension was dropped to blood cell counting chamber and the number of rosette in 1 mm^3 was counted under a microscope. Once lymphocyte was surrounded by more than five SRBC, it was regarded as a rosette.

Assay [2] deals with peripheral blood of mouse. Put plainly: Peripheral blood rosette test (RFC method). The class given is in vivo, mice. To be noted: 4 days after SRBC immunisation. The protocol:
as §1

As for `C=CC(C)(O)CCC=C(C)C` (stereo not shown) [Linalool], the “sedative-hypnotic effect (literature)” value in the assay with mice is listed as “positive effects on the sedative-hypnotic”.

Consider `CC(=O)OCC(=O)[C@@]1(O)CC[C@H]2[C@@H]3CCC4=CC(=O)CC[C@]4(C)[C@H]3C(=O)C[C@@]21C` [cortisone, cortisone acetate], for which, in assay [1], the lymph node weight turned out to be 0.12 ± 0.05 mg/10 g body weight, the thymus weight stood at 3.77 ± 0.83 mg/10 g body weight and the weight of spleen was 2.58 ± 1.00 mg/10 g body weight. The carbon clearance K value in the assay with mononuclear macrophage amounted to 0.00587 ± 0.0033.

`O=P1(N(CCCl)CCCl)NCCCO1` (stereo not shown) [cyclophosphamide]: the rosette percent came to 20.50 ± 4.29 in the assay on spleen cells and 15.93 ± 3.35 in assay [2].
